Reference: patent US20100028395A1, “COMPOSITIONS CONTAINING N-ACETYLGLUCOSAMINE FOR USE IN DERMO-COSMETOLOGY AND AESTHETIC MEDICINE” (ROTTAPHARM S.P.A., priority 2007, published 2010)

Legend:
[1] = system: Human fibroblasts, Detroit 551 ATCC CCL III; test: Stimulation of elastin synthesis in human fibroblast cultures (Fastin assay); format: cell-based; conditions: 24 h
Text: The scope of the test has been the evaluation and the comparison of the potential stimulation exerted by the test substances on the expression of collagen and elastin in “in vitro” cultures of skin-derived cells, such as fibroblasts. The test in question, even though conducted “in vitro”, can be considered to be predictive of the effects of use of the same substances “in vivo”.
Human fibroblasts, Detroit 551 ATCC CCL III from LGC Promochem (Milan, Italy) have been used.
The substances and concentrations tested have been the same as those already described for stage B of the test on the stimulation of HA expression, i.e.: • CA: 0.66, 1.32, 1.98, 2.64 and 3.3 mg/ml • NAG: 0.5, 1.0, 1.5, 2.0 and 2.5 mg/ml • ASS: 0.16, 0.32, 0.48, 0.64 and 0.80 mg/ml
Cells have been plated out in 96 well plates, 2500 cells/well for 24 hours in cell growth medium ([…], DMEM)+10% foetal calf serum (FCS). Fresh culture medium, enriched with just 5% FCS and containing the substances to be tested, so as to reach the final concentrations desired, has then been added. The samples have been dissolved directly in the culture medium. Each sample has been tested in duplicate and the experiments have been repeated twice. The parameters of interest have been determined after 24 hours on separate plates. Untreated cell cultures have been used as controls.
Elastin has been assayed using a commercially available test (Fastin™, biodye science). The assay is based on the interaction of 5,10,15,20-tetraphenyl-21,23-porphyrin with elastin molecules.
De novo elastin synthesis has been evaluated in the culture medium following treatment with the test substances, following the protocol provided with the test, and by using the calibration curve obtained employing the elastin standard contained in the kit itself.
Evaluation of the effects of the substances tested, at the various concentrations, on fibroblast cultures, has been expressed as the absolute and percent increase or decrease of collagen and elastin expression, with respect to the corresponding control culture, after 24 hours of incubation.
The percentage difference increase or decrease of the effects exerted by CA and NAG, at corresponding concentrations, have then been calculated, with consequent evaluation of their potential statistical significance by means of the test Student “t” test.

[2] = system: Human fibroblasts, Detroit 551 ATCC CCL III; test: Stimulation of protein synthesis in human fibroblast cultures (Lowry method); format: cell-based
Method: The following have been used: • Human fibroblasts, Detroit 551 ATCC CCL III from LGC Promochem (Milan, Italy); • Human keratinocyte primary culture: HEKA, Cascade Biologics, cat. 005-5C. Test substances and concentrations
The substances and concentrations tested are those reported below (on both fibroblasts and keratinocytes): • CA: 0.13, 0.66, 1.32, and 2.64 mg/ml • NAG: 0.1, 0.5, 1.0, and 2.0 mg/ml
The method is identical to that already described for collagen and elastin with the difference that, following the addition of the test substances into the culture medium, the medium has been substituted daily for three days. Each sample has been tested in duplicate and the experiments have been repeated twice. The parameter of interest, i.e. protein synthesis, has been evaluated at 24, 48 and 72 hours on separate plates. Untreated cell cultures have been used as controls.
Protein has been assayed using the Lowry method [Lowry et al. 1951] consisting of a Biuret reduction reaction envisaging the use of Folin-Ciocalteau reagent as chromophore, with a yellow to blue colour change and spectrophotometric measurement at 750 nm [Creighton et al. 1984; Sengupta et al. 1993].
The protein content of the cultures in question has been obtained from comparison of their optical densities with a titration curve made using albumin as a protein standard.
Evaluation of the effect of the substances tested, at the various concentrations and times, on cultures of both fibroblasts and keratinocytes has been expressed in both absolute terms (expressed protein production in mg/ml) and as percentage increase or decrease with respect to control cultures.
The percentage difference increase or decrease of the effects exerted by CA and NAG, over various days and at the corresponding concentrations, have then been calculated, with evaluation of their potential statistical significance by means of the test Student “t” test.

hyaluronate synthetase = conditions: plasma membrane fractions of human skin fibroblasts; cited from earlier work
[3] = system: MatTek Human Skin EpiDemFT skin model; conditions: addition of NAG to in vitro skin model; cited from earlier work

Compound: CC(=O)N[C@@H](C=O)[C@@H](O)[C@H](O)[C@H](O)CO [NAG, N-acetyl-2-amino-2 deoxyglucose]
- Elastin (μg/ml) (Diff. from baseline) ([1]; NAG 0.50 mg/ml): +11.21 μg/ml
- Elastin (μg/ml) (Mean ± st. dev.) ([1]; NAG 0.50 mg/ml): 16.29 ± 0.83 µg/mL
- Elastin (%) (Diff. from baseline) ([1]; NAG 1.00 mg/ml): +278.94%
- Elastin (μg/ml) (Diff. from baseline) ([1]; NAG 1.00 mg/ml): +14.17 μg/ml
- Elastin (μg/ml) (Mean ± st. dev.) ([1]; NAG 1.00 mg/ml): 19.25 ± 0.99 µg/mL
- Elastin (%) (Diff. from baseline) ([1]; NAG 1.50 mg/ml): +320.28%
- Elastin (μg/ml) (Diff. from baseline) ([1]; NAG 1.50 mg/ml): +16.27 μg/ml
- Elastin (μg/ml) (Mean ± st. dev.) ([1]; NAG 1.50 mg/ml): 21.35 ± 1.01 µg/mL
- Elastin (%) (Diff. from baseline) ([1]; NAG 2.00 mg/ml): +345.27%
- Elastin (μg/ml) (Diff. from baseline) ([1]; NAG 2.00 mg/ml): +17.54 μg/ml
- Elastin (μg/ml) (Mean ± st. dev.) ([1]; NAG 2.00 mg/ml): 22.62 ± 1.03 µg/mL
- Elastin (μg/ml) (Diff. from baseline) ([1]; NAG 2.50 mg/ml): +17.22 μg/ml
- Elastin (μg/ml) (Mean ± st. dev.) ([1]; NAG 2.50 mg/ml): 22.30 ± 1.04 µg/mL
- Expr. prot. from NAG % incr. over baseline ([2]; NAG 0.10 mg/ml, 24 hours): −14.6%
- Expr. prot. from NAG (mg/ml) - Mean +/− st. dev. ([2]; NAG 0.10 mg/ml, 24 hours): 0.70 ± 0.11 mg/mL
- Expr. prot. from NAG % incr. over baseline ([2]; NAG 0.10 mg/ml, 48 hours): −7.8%
- Expr. prot. from NAG (mg/ml) - Mean +/− st. dev. ([2]; NAG 0.10 mg/ml, 48 hours): 0.95 ± 0.08 mg/mL
- Expr. prot. from NAG % incr. over baseline ([2]; NAG 0.10 mg/ml, 72 hours): −6.4%
- Expr. prot. from NAG (mg/ml) - Mean +/− st. dev. ([2]; NAG 0.10 mg/ml, 72 hours): 1.03 ± 0.18 mg/mL
- Expr. prot. from NAG % incr. over baseline ([2]; NAG 0.50 mg/ml, 24 hours): +31.7%
- Expr. prot. from NAG (mg/ml) - Mean +/− st. dev. ([2]; NAG 0.50 mg/ml, 24 hours): 1.08 ± 0.29 mg/mL
- Expr. prot. from NAG % incr. over baseline ([2]; NAG 0.50 mg/ml, 48 hours): −9.7%
- Expr. prot. from NAG (mg/ml) - Mean +/− st. dev. ([2]; NAG 0.50 mg/ml, 48 hours): 0.93 ± 0.08 mg/mL
- Expr. prot. from NAG % incr. over baseline ([2]; NAG 0.50 mg/ml, 72 hours): +3.6%
- Expr. prot. from NAG (mg/ml) - Mean +/− st. dev. ([2]; NAG 0.50 mg/ml, 72 hours): 1.14 ± 0.16 mg/mL
- Expr. prot. from NAG % incr. over baseline ([2]; NAG 1.00 mg/ml, 24 hours): +35.4%
- Expr. prot. from NAG (mg/ml) - Mean +/− st. dev. ([2]; NAG 1.00 mg/ml, 24 hours): 1.11 ± 0.22 mg/mL
- Expr. prot. from NAG % incr. over baseline ([2]; NAG 1.00 mg/ml, 48 hours): −21.4%
- Expr. prot. from NAG (mg/ml) - Mean +/− st. dev. ([2]; NAG 1.00 mg/ml, 48 hours): 0.81 ± 0.11 mg/mL
- Expr. prot. from NAG % incr. over baseline ([2]; NAG 1.00 mg/ml, 72 hours): −5.5%
- Expr. prot. from NAG (mg/ml) - Mean +/− st. dev. ([2]; NAG 1.00 mg/ml, 72 hours): 1.04 ± 0.20 mg/mL
- Expr. prot. from NAG (mg/ml) - Mean +/− st. dev. ([2]; NAG 2.00 mg/ml, 24 hours): 1.24 ± 0.17 mg/mL
- Expr. prot. from NAG % incr. over baseline ([2]; NAG 2.00 mg/ml, 48 hours): +6.8%
- Expr. prot. from NAG (mg/ml) - Mean +/− st. dev. ([2]; NAG 2.00 mg/ml, 48 hours): 1.10 ± 0.20 mg/mL
- Expr. prot. from NAG % incr. over baseline ([2]; NAG 2.00 mg/ml, 72 hours): +0.91%
- Expr. prot. from NAG (mg/ml) - Mean +/− st. dev. ([2]; NAG 2.00 mg/ml, 72 hours): 1.11 ± 0.19 mg/mL
- activity of the enzyme hyaluronate synthetase (hyaluronate synthetase): stimulates
- increase of HA [3]: very high, significant and dose dependent increase
- increase of pro-collagen 1 [3]: very high, significant and dose dependent increase
